Laboratory results reported in PubChem BioAssay (NCI).
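Results reflect a 48-hour exposure of cells in 96-well plates to compound at five concentrations. GI50 is the concentration that inhibits growth by half. At the TGI there is no net growth.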

Key:
Experiment in all cases: growth of human tumour cells (NCI), 48 h
[1] = tested on: RXF 393 renal
[2] = tested on: NCI-H460 lung
[3] = tested on: HL-60(TB) leukemia
[4] = tested on: CCRF-CEM leukemia
[5] = tested on: 786-0 renal
[6] = tested on: LOX IMVI melanoma
[7] = tested on: OVCAR-4 ovarian
[8] = tested on: HOP-92 NSCLC
[9] = tested on: COLO 205 colon
[10] = tested on: HCC-2998 colon

Compound | GI50 [1] [µM] | TGI [1] [µM] | GI50 [2] [µM] | TGI [2] [µM] | GI50 [3] [µM] | TGI [3] [µM] | GI50 [4] [µM] | TGI [4] [µM] | GI50 [5] [µM] | TGI [5] [µM] | GI50 [6] [µM] | TGI [6] [µM] | GI50 [7] [µM] | TGI [7] [µM] | GI50 [8] [µM] | TGI [8] [µM] | GI50 [9] [µM] | TGI [9] [µM] | TGI [10] [µM] | GI50 [10] [µM]
CCOC(=O)c1cc(-c2ccc([N+](=O)[O-])cc2)n(-c2ccc(C(=O)O)c(O)c2)c1C | 5.95 | 20.3 | 4.16 | 17 | 4.94 | 48.4 | 2.75 | > 100 | 4.84 | 17.2 | 2.85 | 11 | 4.11 | 19.7 | 2.09 | 13.4 | 1.6 | 3.84 |  | 
OCCNCO |  | > 100 |  | > 100 |  | > 100 |  | > 100 |  | > 100 |  | > 100 |  | > 100 |  | > 100 |  | > 100 |  | 
NC1(CCCCCCCCCCC(=O)O)CNCCNCCNCCNC1 |  | > 100 |  | 86.4 |  | 47.5 |  | > 100 |  | > 100 |  |  |  | > 100 |  |  |  | > 100 | 46 | 
O=C1CSC(N2CCN(c3cccc(Cl)c3)CC2)=N1 | > 100 | > 100 | > 100 | > 100 | > 100 | > 100 | > 100 | > 100 | > 100 | > 100 | > 100 | > 100 | > 100 | > 100 |  |  | > 100 | > 100 | > 100 | > 100
Cc1nc2nnc(C)n2c2c1C(=O)Nc1ccccc1N2 |  | > 100 |  | > 100 |  | > 100 |  | > 100 |  | > 100 |  | > 100 |  |  |  | > 100 |  | > 100 | > 100 | 
OCc1c(-c2cccc3ccccc23)sc(-c2cccc3ccccc23)c1CO |  |  |  | 34.7 |  | 42.5 |  | 46.5 |  | 27.4 |  | 30.5 |  |  |  | 30.7 |  | 24.9 | 33.9 | 
CC1=C(CCCOC(=O)NCCCl)C2=C(C)C3(CC3)[C@@](C)(O)C(=O)C2=C1 |  |  | 2.42 | 13.6 | 4.57 | > 100 | 9.4 | > 100 | 2.71 | 8.16 | 3.13 | 19.8 | 2.7 | > 100 | 2.87 | 8.24 | 2.06 | 6.65 | 7.24 | 2.35
Cc1cccc(C(C)(C)C)c1NC(=O)C(=O)Cc1nc2ccccc2s1 |  |  |  | > 100 |  | > 100 |  |  |  | > 100 |  | > 100 |  | > 100 |  | > 100 |  | > 100 | > 100 | 
O=S(=O)(O)C(O)/C=C/c1ccccc1 (stereo unspecified) |  | > 100 |  |  |  | > 100 |  | > 100 |  | > 100 |  | > 100 |  | > 100 |  |  |  | > 100 | > 100 | 
C[C@]12CCC(=O)C=C1CC[C@@H]1C2CC[C@]2(C)NC(=O)C(C#N)CC12 (stereo partly specified) |  | > 100 |  | > 100 |  | > 100 |  | > 100 |  | > 100 |  |  |  | > 100 |  |  |  |  | > 100 | 
C1CN2N3CCCC23C1 (stereo unspecified) |  | > 100 |  | > 100 |  | > 100 |  | > 100 |  | > 100 |  | > 100 |  | > 100 |  |  |  | > 100 | > 100 | 
COc1cc([C@@H]2c3cc4c(cc3[C@@H](NC(=O)c3cccc([N+](=O)[O-])c3)C3COC(=O)[C@@H]32)OCO4)cc(OC)c1O (stereo partly specified) |  | 9.97 |  | 1.32 |  |  |  | > 100 |  | 0.833 |  | 9.41 |  | > 89.5 |  | 22.8 |  | > 100 | 3.17 | 
COc1cc2c(cc1OC)C1C=NC(C(=O)O)(C2)c2ccccc21 (stereo unspecified) |  | > 100 |  | > 100 |  | > 100 |  | > 100 |  | > 100 |  | > 100 |  | > 100 |  | > 100 |  | > 100 |  | 
Cc1cccc2c3ccc4c(c3n(C)c12)C(=O)C=CC4=O |  |  |  |  |  | 41.9 |  | 61.2 |  | > 100 |  |  |  | > 100 |  | > 100 |  | > 100 | > 100 | 
O=C(/C=C(\[O-])c1ccccc1)CCCCCCC(=O)/C=C(\[O-])c1ccccc1.O=C(/C=C(\[O-])c1ccccc1)CCCCCCC(=O)/C=C(\[O-])c1ccccc1.O=C(/C=C(\[O-])c1ccccc1)CCCCCCC(=O)/C=C(\[O-])c1ccccc1.[La+3].[La+3] | > 50 | > 50 | > 50 | > 50 | > 50 | > 50 |  |  | > 50 | > 50 | > 50 | > 50 | > 50 | > 50 | > 50 | > 50 | > 50 | > 50 | > 50 | > 50
CCCNC(=O)OCc1c(COC(=O)NCCC)c(-c2ccc(Cl)c(Cl)c2)n2c1CCC2 |  | 9.35 |  | 17.2 |  | 7.7 |  | 7.95 |  | 11.4 |  | 15.8 |  |  |  | 9.98 |  | 13.2 |  | 
c1ccc(-c2nnc(-c3nn(-c4ccccc4)c4nc5ccccc5nc34)o2)cc1 |  | 41.4 |  |  |  | 85.2 |  | 85.5 |  | > 100 |  | > 100 |  | > 100 |  |  |  | > 100 | > 100 | 
O=C(N/N=C/c1cccc(O)c1O)N/N=C/c1cccc(O)c1O |  | 86.4 |  | > 100 |  |  |  | 38.5 |  | > 100 |  | > 100 |  | > 100 |  | 77.9 |  | > 100 |  | 
O=C(O)c1cc(S(=O)(=O)N=NC=C2c3ccccc3N(O)c3ccccc32)ccc1O |  |  |  | 33.5 |  | 23.7 |  | 86 |  | 27.7 |  | 26 |  | 19.8 |  | 30.1 |  | 37.6 | 37.9 | 
CCCCCCCCCCCCCCC1OC(=O)c2ccccc21 (stereo unspecified) |  | > 100 |  | > 100 |  | 40.7 |  | > 100 |  | > 100 |  | > 100 |  | > 100 |  |  |  |  |  | 
S=C1NCCN1C1=Nc2ccccc2CO1 |  |  | > 100 | > 100 | > 100 | > 100 | > 100 | > 100 | > 100 | > 100 | > 100 | > 100 | > 100 | > 100 | > 100 | > 100 | > 100 | > 100 | > 100 | > 100
